Assay results: patent publication US6794402B2, “Bicyclic cyclohexylamines and their use as NMDA receptor antagonists” (Warner-Lambert Company, priority 2000, dated 2004)

What was measured:
NR1A/NR2B NMDA receptor = NR1A/NR2B NMDA receptor (Rattus norvegicus, UniProt P35439+Q00960); test: Electrophysiological assay at NMDA receptor subunits expressed in Xenopus oocytes; type: cell-based; conditions: cloned rat NR1A/NR2B in Xenopus oocytes, two-electrode voltage clamp, glutamate 100 μM + glycine 1-100 μM; read-out: NR1A/NR2B Oocyte IC50
Chain of NR1A/NR2B NMDA receptor (Q00960 27-1482, other chains not shown): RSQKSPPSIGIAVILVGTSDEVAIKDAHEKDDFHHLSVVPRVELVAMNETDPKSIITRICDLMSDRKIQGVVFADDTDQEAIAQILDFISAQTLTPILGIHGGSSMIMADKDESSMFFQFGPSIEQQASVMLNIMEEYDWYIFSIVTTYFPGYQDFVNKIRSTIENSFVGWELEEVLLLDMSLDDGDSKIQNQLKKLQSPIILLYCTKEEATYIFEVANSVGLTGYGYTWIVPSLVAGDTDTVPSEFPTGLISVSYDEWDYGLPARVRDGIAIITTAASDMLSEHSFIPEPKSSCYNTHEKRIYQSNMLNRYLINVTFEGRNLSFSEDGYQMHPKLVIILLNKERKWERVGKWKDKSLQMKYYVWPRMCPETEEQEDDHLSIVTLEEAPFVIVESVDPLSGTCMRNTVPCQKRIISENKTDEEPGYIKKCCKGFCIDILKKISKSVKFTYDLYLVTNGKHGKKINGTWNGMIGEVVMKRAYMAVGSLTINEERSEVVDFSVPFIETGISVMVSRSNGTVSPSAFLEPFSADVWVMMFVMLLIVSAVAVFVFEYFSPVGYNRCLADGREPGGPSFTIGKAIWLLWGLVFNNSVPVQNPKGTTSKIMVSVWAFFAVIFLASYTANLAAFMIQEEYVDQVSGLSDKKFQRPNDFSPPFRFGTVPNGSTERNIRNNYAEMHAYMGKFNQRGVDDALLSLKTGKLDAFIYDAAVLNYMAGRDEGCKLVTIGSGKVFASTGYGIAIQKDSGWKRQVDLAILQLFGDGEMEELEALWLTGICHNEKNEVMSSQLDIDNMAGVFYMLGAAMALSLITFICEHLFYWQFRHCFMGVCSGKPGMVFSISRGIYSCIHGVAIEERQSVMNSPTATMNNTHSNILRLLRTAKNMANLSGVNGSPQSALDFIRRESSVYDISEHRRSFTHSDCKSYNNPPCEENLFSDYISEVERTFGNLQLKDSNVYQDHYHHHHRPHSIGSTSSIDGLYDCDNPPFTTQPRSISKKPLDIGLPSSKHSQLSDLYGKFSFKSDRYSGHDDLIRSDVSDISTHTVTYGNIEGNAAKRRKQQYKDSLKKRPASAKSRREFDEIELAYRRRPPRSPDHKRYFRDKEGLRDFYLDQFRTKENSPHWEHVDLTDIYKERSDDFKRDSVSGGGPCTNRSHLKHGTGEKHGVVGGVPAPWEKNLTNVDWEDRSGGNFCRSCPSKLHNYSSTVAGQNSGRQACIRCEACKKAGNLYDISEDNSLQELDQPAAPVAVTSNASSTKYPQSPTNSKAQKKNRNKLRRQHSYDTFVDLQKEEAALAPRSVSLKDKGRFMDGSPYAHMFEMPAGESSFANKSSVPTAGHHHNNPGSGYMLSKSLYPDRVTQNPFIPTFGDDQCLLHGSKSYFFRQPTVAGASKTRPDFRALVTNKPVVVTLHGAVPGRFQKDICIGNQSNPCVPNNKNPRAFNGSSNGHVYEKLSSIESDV
Description: Preparation of RNA. cDNA clones encoding the NR1A, NR2A, NR2B, and NR2C rat NMDA receptor subtypes were used (see, Moriyoshi, supra., 1991; Kutsuwada et al., supra., 1992; Monyer et al., supra, 1992; Ikeda et al., FEBS Lett., 1992;313:34-38; Ishii et al., J. Biol. Chem., 1993;268:2836-2843 for details of these clones or their mouse homologs). The clones were transformed into appropriate host bacteria and plasmid preparations were made with conventional DNA purification techniques. A sample of each clone linearized by restriction enzyme digestion […] was synthesized with T3 RNA polymerase. The cRNA was diluted to 400 ng/μL and stored in 1-μL aliquots at −80° C. until injection.
The Xenopus oocyte expression system. Mature female Xenopus laevis were anaesthetized (20-40 minutes) using 0.15% 3-aminobenzoic acid ethyl ester (MS-222), and 2 to 4 ovarian lobes were surgically removed. Oocytes at developmental stages IV-VI (Dumont J. N., J. Morphol., 1972;136:153-180) were dissected from the ovary still surrounded by enveloping ovarian tissues. Follicle-enclosed oocytes were microinjected with 1:1 mixtures of NR1A:NR2A, 2B or 2C; injecting 1 to 10 ng of RNA encoding each receptor subunit. NR1A encoding RNA was injected alone at ˜20 ng. Oocytes were stored in Barth's medium containing (in mM): NaCl, 88; KCl, 1; CaCl2, 0.41; Ca (NO3)2, 0.33; MgSO4, 0.82; NaHCO3, 2.4; HEPES 5; pH 7.4, with 0.11 mg/mL gentamicin sulphate. While oocytes were still surrounded by enveloping ovarian tissues, the Barth's medium was supplemented with 0.1% bovine serum. Oocytes were defolliculated 1 to 2 days following injections by treatment with collagenase (0.5 mg/mL Sigma Type I for 0.5-1 hr)-(Miledi and Woodward, J. Phsyiol., (Lond) 1989;416:601-621) and subsequently stored in serum-free medium.
Electrical recordings were made using a conventional two-electrode voltage clamp (Dagan TEV-200) over periods ranging between 3 to 21 days following injection (Woodward et al., Mol. Pharmacol., 1992;41:89-103). Oocytes were placed in a 0.1-mL recording chamber continuously perfused (5 mL-15 mL min^−1) with frog Ringer's solution containing (in mM): NaCl, 115; KCL, 2; BaCl2, 1.8; HEPES, 5; and pH 7.4. Drugs were applied by bath perfusion. Using oocytes expressing different subunit combinations of NMDA receptor, NMDA currents were activated by co-application of glutamate (100 μM) and glycine (1-100 μM). Inhibitory potency of the novel antagonists was assessed on responses elicited by fixed concentrations of glutamate and glycine, by measuring reductions in current induced by progressively increasing concentrations of antagonist.
Concentration-inhibition curves were fit with Equation 1.
I/Icontrol=1/(1+([antagonist]/10−^pIC50)^n) Eq. 1
In which Icontrol is the current evoked by agonists alone, pIC50=−log IC50, IC50 is the concentration of antagonist that produced half maximal inhibition, and n is the slope factor (De Lean et al., Am. J. Physiol., 1978;235:E97-102). For incomplete curves, analysis by fitting was unreliable and IC50 values were calculated by simple regression over linear portions of the curves (Origin: Microcal Software).

[1] = target: T1, [3H]ifenprodil binding site, rat forebrain membranes (Rattus norvegicus, UniProt P35439+Q00960); test: [3H]Ifenprodil binding assay; conditions: 4 nM [3H]-ifenprodil, 2 hours at room temperature
T1 construct: membrane fraction was prepared from frozen adult rat forebrains; tissue Zivic-Miller Laboratories, Inc; host or cells: adult rat forebrain, washed buffy coat membrane fraction
T1 sequence (Q00960 27-1482, other chains not shown): as above
Summary of the method: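 Washed rat forebrain buffy coat membranes (100-200 μg protein) were incubated with 4 nM [3H]ifenprodil in 20 mM HEPES-KOH pH 7.4 for 2 hours at room temperature, in triplicate, then filtered on PEI-soaked GF/B filters. Nonspecific binding was set with 1 mM ifenprodil. IC50 came from a one- or two-site competition fit.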

[2] = system: 6-Hydroxydopamine-lesioned rats; test: 6-OHDA lesioned rat assay; type: in vivo; conditions: for 6-OHDA MED: minimum effective dose to potentiate contraversive rotation induced by L-DOPA methyl ester 10 mg/kg SC, 6-hour period; for 6-OHDA active/inactive at the given dose: statistically significant increase in contraversive rotations vs L-DOPA only
Protocol: 6-Hydroxydopamine-lesioned rats were used (see Ungerstedt U., Arbuthnott G. W., Quantitative recording of rotational behavior in rats after 6-hydroxy-dopamine lesions of the nigrostraiatal dopamine system. Brain Res., 1971;24(3):485-93). Adult male Sprague-Dawley rats were anesthetized with chloral hydrate and unilateral lesions of the nigrostriatal dopamine system were accomplished by infusion of 8 μg of 6-hydroxydopamine HBr (6-OHDA) into the right medial forebrain bundle. Rats were pretreated 30 minutes before surgery with desipramine HCl 25 mg/kg intraperitoneally (IP) to protect noradrenegic neurons, and pargyline 25 mg/kg IP to potentiate the effects of 6-OHDA. A minimum of 3 weeks after surgery, the rotational behavior induced by apomorphine HCL 50 μg/kg subcutaneously (SC) was assessed.
Rotational behavior was measured using an automatic rotometer system (Rotorat Rotational Activity System, MED Associates, Georgia, Vt.). Anti-parkinsonian activity was assessed as the ability of the compound to potentiate the contraversive rotation induced by L-DOPA methyl ester, 10 mg/kg SC, over a 6-hour period. Experiments were conducted using a crossover paradigm where each rat received either a vehicle plus L-DOPA, or the test compound plus L-DOPA, in randomized order. Rats were tested at 7-day intervals. In experiments in which the compound was tested orally, rats were food deprived for 16 hours. Statistical analysis between treatment groups were performed using a paired t-test. The results were reported in Table 1 as the minimum effective dose (MED) of compound (mg/kg) required to produce a statistically-significant increase in total contraversive rotations compared to rats receiving L-DOPA only.

IC50 (NR1A/NR2B NMDA receptor)	IC50 [1]	melting point	Compound	6-OHDA MED [2]	6-OHDA active/inactive at the given dose [2]
30 nM	4 nM	166 to 170 °C	O=c1[nH]c2ccc([C@H]3CC[C@H](NCCCc4ccccc4)CC3)cc2o1 [Example 1, 6-[trans-4-(3-Phenylpropylamino)cyclohexyl]-3H-benzoxazol-2-one]	30 mg/kg	active
100 nM	40 nM	172 to 176 °C	O=c1[nH]c2ccc([C@H]3CC[C@H](NCCOc4ccc(F)cc4)CC3)cc2o1 [Example 2, 6-{trans-4-[2-(4-Fluorophenoxy)ethylamino]cyclohexyl}-3H-benzoxazol-2-one]	10.0 mg/kg	active
100 nM		159 to 162 °C	O=c1[nH]c2ccc([C@H]3CC[C@H](NCCOc4ccccc4)CC3)cc2o1 [Example 3, 6-[trans-4-(2-Phenoxyethylamino)cyclohexyl]-3H-benzoxazol-2-one]	10.0 mg/kg	active
65 nM	9 nM	62 to 65 °C	CN(CCCc1ccc(F)cc1)[C@H]1CC[C@H](c2ccc3[nH]c(=O)oc3c2)CC1 [Example 18, 6-(trans-4-{[3-(4-Fluorophenyl)propyl]methylaamino}cyclohexyl)-3H-benzoxazol-2-one]	10 mg/kg	active
